Here are results for four compounds from publication PMC3178264 (Nature chemical biology, 2009).

For data set [1] the following is noted: cited from earlier work.
For data set [2] the following is noted: cited from earlier work. This is another data set of the same source.
The next data set deals with human UNG (Homo sapiens, UniProt P13051). The data set is classed as biochemical.

The structures appear in SMILES notation.

human UNG, sequence (P13051 whole entry): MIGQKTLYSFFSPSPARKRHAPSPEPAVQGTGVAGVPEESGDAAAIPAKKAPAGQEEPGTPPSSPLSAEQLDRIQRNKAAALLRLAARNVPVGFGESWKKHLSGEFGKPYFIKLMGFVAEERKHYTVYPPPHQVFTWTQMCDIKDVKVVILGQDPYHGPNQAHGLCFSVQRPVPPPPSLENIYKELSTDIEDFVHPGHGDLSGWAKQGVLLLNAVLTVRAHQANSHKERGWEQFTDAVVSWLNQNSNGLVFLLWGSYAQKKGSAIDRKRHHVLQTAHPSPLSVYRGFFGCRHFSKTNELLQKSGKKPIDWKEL

Regarding `C=CC[C@@H]1/C=C(\C)C[C@H](C)C[C@H](OC)[C@H]2O[C@@](O)(C(=O)C(=O)N3CCCC[C@H]3C(=O)O[C@H](/C(C)=C/[C@@H]3CC[C@@H](O)[C@H](OC)C3)[C@H](C)[C@@H](O)CC1=O)[C@H](C)C[C@@H]2OC` [FK506], the “binds less tightly than expected from summing the binding free energies of its component fragments” value in data set [1] is “about 3 kcal/mol”.
As usually defined, the pKa is the pH at which an ionisable group is half protonated. As to `CNCc1ccccc1` [N-methyl-benzyl amine], the pKa in data set [2] is 9.8.
Regarding `O=C(O)c1cccc(/C=N/OCCCNCc2cc(=O)[nH]c(=O)[nH]2)c1` [compound 6], the “free energy change more negative than DO” value at human UNG (MA1 compared with DO) was -2.0 kcal/mol.
Turning to `O=C(O)c1cccc(CNCCCO/N=C/c2cc(=O)[nH]c(=O)[nH]2)c1` [compound 22], the “ΔΔG of binding on switching amine to oxime linkages” value at human UNG (difference free energies relative to DA (27), Figure 4) was -0.6 kcal/mol.
